Measured values from ChEMBL document CHEMBL1141972, “4'C-ethynyl-thymidine acts as a chain terminator during DNA-synthesis catalyzed by HIV-1 reverse transcriptase” (Bioorg Med Chem Lett, 2005).

Target: Human immunodeficiency virus type 1 reverse transcriptase (Human immunodeficiency virus 1, UniProt Q72547)
Test: Inhibitory concentration against human immunodeficiency virus type 1 reverse transcriptase

Row | IC50 [nM] | Compound
1 | 3280 | C#C[C@]1(COP(=O)(O)OP(=O)(O)OP(=O)(O)O)O[C@@H](n2cc(C)c(=O)[nH]c2=O)C[C@@H]1O
2 | 2100 | Cc1cn([C@H]2C[C@H](N=[N+]=[N-])[C@@H](CO[P@](=O)(O)O[P@](=O)(O)OP(=O)(O)O)O2)c(=O)[nH]c1=O [ZIDOVUDINE TRIPHOSPHATE]
